Our source for the event rate, k on and k off values is PMC7317717, “Electrophysiological Characterization of Transport Across Outer‐Membrane Channels from Gram‐Negative Bacteria in Presence of Lipopolysaccharides” (Angewandte Chemie (International Ed. in English), 2020).

Structures are written as SMILES. Counter-ions that a name gives are not always drawn.

Assay in all cases: single-channel electrophysiology, planar lipid bilayer, ion current blockage events
Common to all, as to assay type: binding

Assay [1] deals with T1, OmpF (OmpF-WT) (Escherichia coli, UniProt P02931).
T1 construct: purified wild-type OmpF, mature porin, homotrimer, reconstituted in planar lipid bilayer; OMV form overexpressed in E. coli BL21(DE3)omp8
T1 sequence (P02931 23-362): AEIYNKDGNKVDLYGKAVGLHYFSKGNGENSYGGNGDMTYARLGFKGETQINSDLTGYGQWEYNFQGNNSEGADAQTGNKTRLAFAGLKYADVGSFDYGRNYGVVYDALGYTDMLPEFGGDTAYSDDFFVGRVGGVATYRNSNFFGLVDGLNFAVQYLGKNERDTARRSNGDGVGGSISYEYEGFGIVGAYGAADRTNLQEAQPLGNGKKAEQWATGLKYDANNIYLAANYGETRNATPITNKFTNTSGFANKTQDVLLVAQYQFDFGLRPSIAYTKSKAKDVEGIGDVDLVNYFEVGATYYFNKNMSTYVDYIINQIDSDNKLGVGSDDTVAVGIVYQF
The note with it: purified OmpF; 10 uM compound; 1 M KCl, 20 mM MES, pH 6.

For assay [2], the target named is T1, OmpF (OmpF-WT). The note with it: purified OmpF without LPS; 250 uM compound; 200 mM KCl, 20 mM MES, pH 6.0; negative voltage (-50 mV stated for the OMV values). The text has this:
single-channel electrophysiology, planar lipid bilayer, ion current blockage events on OmpF (OmpF-WT) | Higher event rates are found using purified OmpF.

Assay [3] deals with T1, OmpF (OmpF-WT). Conditions: purified OmpF without LPS; 250 uM compound; 200 mM KCl, 20 mM MES, pH 6.0; negative voltage (-50 mV stated for the OMV values). The source holds these as a separate data set.

Consider `NC[C@H]1O[C@H](O[C@H]2[C@H](O)[C@@H](O[C@H]3O[C@H](CO)[C@@H](O)[C@H](N)[C@H]3O)[C@H](N)C[C@@H]2N)[C@H](O)[C@@H](O)[C@@H]1O` [Kanamycin sulfate], for which the event rate result at OmpF (OmpF-WT) [1] is given as “Kanamycin sulfate permeation for both batches of preparation”.
On to `CCN1CCN(c2cc3c(cc2F)c(=O)c(C(=O)O)cn3C2CC2)CC1` [Enrofloxacin], for which the k on at OmpF (OmpF-WT) [2] was 72,000 s^-1 M^-1. At OmpF (OmpF-WT) [3], the k off turned out to be 500 s⁻¹.
